Assay: In vitro release of TC or Rh in simulated body fluid (SBF) from alkylsilane-coated Mg discs
Assay type: physicochemical
Conditions: alkylsilane coated Mg disks incubated in SBF, room temperature, 21 day period, sampled every two days; FIG. 1; one way ANOVA highly significant
Protocol: Self-assembled hybrid […] (AS) films on Mg were prepared using a dip-coating technique. The precursor solution was prepared by mixing 0.25 ml (0.73 mM) of […]) (Alfa Aesar, Ward Hill, MA, USA), 0.43 ml (2.92 mM) of […]) (Alfa Aesar, Ward Hill, MA, USA), 2 ml (0.032 mM) of ethanol and 0.25 ml of 0.010 mM HCl (aq.). […] Both the solutions were kept in the dark to avoid contact with light The Mg discs passivated with NaOH were dip coated in the TC- or Rh-containing solution for 1 minute, and dried in air for 10 minutes at room temperature in the dark. The discs were subsequently dried in an incubator at 37° C. for 24 hours to remove any trace amounts of organic solvents. […] Every two days, 150 μl of SBF was taken from each tube and concentrations of Tc and Rh were determined spectroscopically. The concentrations of TC or Rh were determined by measuring absorbance at 280 nm for TC, and fluorescence at excitation/emission wavelengths of 525/555 nm for Rh using a Synergy H1 microplate reader (BioTek instruments, Winooski, VT, USA). Standard curves were created by measuring absorbance and fluorescence intensities of the series of TC and Rh samples of known concentrations. Absorbance and Fluorescence intensity of each sample was calculated as an average of three separate readings. […] Cumulative release of TC or Rh over 21 day period was determined.

- concentration in SBF media (cumulative release): incremental increase
Substance: rhodamine

— patent US12303621B2, “Use of self-assembled alkylsilane coatings for drug delivery applications” (priority 2017, dated 2025)
